Prodrug reconversion and solubility data for five compounds are collected here from ChEMBL document CHEMBL1132885, “Phosphate prodrugs of PD154075” (Bioorg Med Chem Lett, 2000).

A word on the solubility: it is the dissolved amount per volume that the medium holds. High values mean a readily soluble substance, low ones a poorly soluble substance.

In series [1] the test system is Rattus norvegicus. Nature of the series: In vivo percentage of prodrug (Compound) reconversion to PD-154075 from (male Wistar rat) plasma after intravenous administration of the 5.7 mg/ml compound. In kind it is functional.
Series [2] is described as follows: Solubility in water was determined. In kind it is physicochemical.
In series [3] the test system is Rattus norvegicus. The series can be described thus: In vivo percentage of prodrug (Compound) reconversion to PD-154075 from (male Wistar rat) plasma after intravenous administration of the 5.3 mg/mL compound. In kind it is functional.
For series [4], the system named is Rattus norvegicus. Nature of the series: In vivo percentage of prodrug (Compound) reconversion to PD-154075 from (male Wistar rat) plasma after intravenous administration of the 4.6 mg/ml compound. In kind it is functional.
The test system of series [5] is Rattus norvegicus. Nature of the series: In vivo percentage of prodrug (Compound) reconversion to PD-154075 from (male Wistar rat) plasma after intravenous administration of the 5 mg/ml compound. Type of series: functional.

Molecules are shown by their SMILES.

With `C[C@@H](NC(=O)[C@@](C)(Cc1cn(P(=O)([O-])[O-])c2ccccc12)NC(=O)OCc1cc2ccccc2o1)c1ccccc1.[Na+].[Na+]`, the Prodrug reconversion in the series with Rattus norvegicus [1] stood at 11.7%. In series [2], this compound had a solubility of 76 mg/mL.

For the compound `C[C@@H](NC(=O)[C@@](C)(Cc1cn(C(=O)OCOC(=O)c2ccc(COP(=O)([O-])[O-])cc2)c2ccccc12)NC(=O)OCc1cc2ccccc2o1)c1ccccc1.[Na+].[Na+]`, the Prodrug reconversion with Rattus norvegicus [3] worked out at 59.5%. In addition, the concentration in solution in series [2] (solubility) came to 58 mg/mL.

In the case of `C[C@@H](NC(=O)[C@@](C)(Cc1cn(C(=O)c2ccccc2COP(=O)([O-])[O-])c2ccccc12)NC(=O)OCc1cc2ccccc2o1)c1ccccc1.[Na+].[Na+]`, in the series on Rattus norvegicus [4], the Prodrug reconversion is recorded as 19.9%. This compound also displayed a solubility in series [2] of 55 mg/mL.

As for `Cc1cc(C)c(C(C)(C)CC(=O)n2cc(C[C@@](C)(NC(=O)OCc3cc4ccccc4o3)C(=O)N[C@H](C)c3ccccc3)c3ccccc32)c(OP(=O)([O-])[O-])c1.[Na+].[Na+]`, the Prodrug reconversion in the series on Rattus norvegicus [5] was 9.35%. The amount in solution in series [2] (solubility) came to 31 mg/mL.

Compound `CC(NC(=O)[C@@](C)(Cc1c[nH]c2ccccc12)NC(=O)OCc1cc2ccccc2o1)c1ccccc1` (single isomer, unassigned) registered a solubility in series [2] of less than 0.001 mg/mL.
